“And” between values parts separate entries of the source, which are not always exact repeats. Equal values may be shown once. Toxic doses and inconclusive results are not listed. Rule for the calls: active = survival T/C of 150% or more; inactive = T/C below 125% in these data. Peptide text beside a SMILES is read from it.
Tested on: P388 leukemia ip, CD2F1 mice, survival T/C
Assay: NCI In Vivo Anticancer Drug Screen. Data for tumor model P388 Leukemia (intraperitoneal) in CD2F1 (CDF1) mice
Settings: endpoint: median survival time, higher = longer survival
Summary of the method: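 Mice carrying the transplanted tumor received test compound or vehicle. Survival was recorded in each group, and the value is the treated-group measurement divided by that of the vehicle-treated control group.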

[1] = dose: 100.0 mg/kg/injection, schedule: Q04DX003 (ip), vehicle: saline
[2] = dose: 200.0 mg/kg/injection, schedule: Q04DX003 (ip), vehicle: saline
[3] = dose: 50.0 mg/kg/injection, schedule: Q04DX002 (ip), vehicle: saline with Tween-80
[4] = dose: 50.0 mg/kg/injection, schedule: Q01DX009 (ip), vehicle: saline
[5] = dose: 100.0 mg/kg/injection, schedule: Q01DX009 (ip), vehicle: saline
[6] = dose: 200.0 mg/kg/injection, schedule: Q01DX009 (ip), vehicle: saline
[7] = dose: 50.0 mg/kg/injection, schedule: Q01DX009 (ip), vehicle: saline with Tween-80
[8] = dose: 100.0 mg/kg/injection, schedule: Q01DX009 (ip), vehicle: saline with Tween-80
[9] = dose: 200.0 mg/kg/injection, schedule: Q01DX009 (ip), vehicle: saline with Tween-80
[10] = dose: 100.0 mg/kg/injection, schedule: Q04DX002 (ip), vehicle: saline with Tween-80
[11] = dose: 200.0 mg/kg/injection, schedule: Q04DX002 (ip), vehicle: saline with Tween-80
[12] = dose: 400.0 mg/kg/injection, schedule: Q04DX002 (ip), vehicle: saline with Tween-80
[13] = dose: 60.0 mg/kg/injection, schedule: Q01DX005 (ip), vehicle: saline
[14] = dose: 120.0 mg/kg/injection, schedule: Q01DX005 (ip), vehicle: saline
[15] = dose: 240.0 mg/kg/injection, schedule: Q01DX005 (ip), vehicle: saline
[16] = dose: 25.0 mg/kg/injection, schedule: Q01DX009 (ip), vehicle: saline with Tween-80
[17] = dose: 60.0 mg/kg/injection, schedule: Q01DX005 (ip), vehicle: saline with Tween-80
[18] = dose: 120.0 mg/kg/injection, schedule: Q01DX005 (ip), vehicle: saline with Tween-80
[19] = dose: 240.0 mg/kg/injection, schedule: Q01DX005 (ip), vehicle: saline with Tween-80
[20] = dose: 12.5 mg/kg/injection, schedule: Q01DX009 (ip), vehicle: saline
[21] = dose: 25.0 mg/kg/injection, schedule: Q01DX009 (ip), vehicle: saline

Measured: T/C

CCCOC(=O)C1(N)CCCC1
inactive: [1] 100 % of control | [2] 113 % of control | dose: 400.0 mg/kg/injection, schedule: Q04DX003 (ip), vehicle: saline 118 % of control

O=C1C=C(c2ccccc2)CS1
inactive: dose: 100.0 mg/kg/injection, schedule: Q04DX003 (ip), vehicle: Klucel (hydroxypropylcellulose) (HPC) 101 % of control | dose: 200.0 mg/kg/injection, schedule: Q04DX003 (ip), vehicle: Klucel (hydroxypropylcellulose) (HPC) 101 % of control | dose: 400.0 mg/kg/injection, schedule: Q04DX003 (ip), vehicle: Klucel (hydroxypropylcellulose) (HPC) 101 % of control

CCOC(=O)/C(=C\c1ccccc1)O/C(=C/c1ccccc1)C(=O)OCC
inactive: dose: 12.5 mg/kg/injection, schedule: Q04DX002 (ip), vehicle: saline with Tween-80 100 % of control | dose: 25.0 mg/kg/injection, schedule: Q04DX002 (ip), vehicle: saline with Tween-80 97 % of control | [3] 99 % of control

CN1CCN(C(=O)N2CCCc3ccccc32)CC1
inactive: [1] 101 % of control | [2] 99 % of control

CCCCCCCCCCCCCCCC[N+]1(CC)CCSCC1
inactive: [4] 100 % of control | [5] 96 % of control | [6] 100 % of control

CC(C)=NNC(=O)C1CCN1Cc1ccccc1 (stereo unspecified)
inactive: dose: 50.0 mg/kg/injection, schedule: Q01DX001 (ip), vehicle: saline 106 % of control | dose: 100.0 mg/kg/injection, schedule: Q01DX001 (ip), vehicle: saline 106 % of control | dose: 200.0 mg/kg/injection, schedule: Q01DX001 (ip), vehicle: saline 111 % of control | dose: 400.0 mg/kg/injection, schedule: Q01DX001 (ip), vehicle: saline 106 % of control

CC(=O)Oc1cc2c(c(OC(C)=O)n1)C(C)N(Cc1ccccc1)C2=O (stereo unspecified)
inactive: dose: 50.0 mg/kg/injection, schedule: Q01DX009 (ip), vehicle: Klucel (hydroxypropylcellulose) (HPC) 106 % of control | dose: 100.0 mg/kg/injection, schedule: Q01DX009 (ip), vehicle: Klucel (hydroxypropylcellulose) (HPC) 106 % of control | dose: 200.0 mg/kg/injection, schedule: Q01DX009 (ip), vehicle: Klucel (hydroxypropylcellulose) (HPC) 115 % of control

C=C(C)C(=O)N(CC)CC
inactive: [5] 97 % of control | [6] 102 % of control

COC1/C=C/OC2(C)Oc3c(C)c(O)c4c(O)c(c(/C=N/N(C)c5nc6c(N)ncnc6n5C5OC(CO)C(O)C5O)c(O)c4c3C2=O)NC(=O)C(C)=C/C=C/C(C)C(O)C(C)C(O)C(C)C(OC(C)=O)C1C (stereo unspecified)
inactive: [7] 101 % of control | [8] 97 % of control | [9] 101 % of control

Cc1ccc(O)c(C(=NCCN=C(c2ccccc2)c2cc(C)ccc2O)c2ccccc2)c1
inactive: dose: 50.0 mg/kg/injection, schedule: Q01DX005 (ip), vehicle: Klucel (hydroxypropylcellulose) (HPC) 103 % of control and 106 % of control and 98 % of control | dose: 100.0 mg/kg/injection, schedule: Q01DX005 (ip), vehicle: Klucel (hydroxypropylcellulose) (HPC) 100 % of control and 104 % of control and 118 % of control | dose: 200.0 mg/kg/injection, schedule: Q01DX005 (ip), vehicle: Klucel (hydroxypropylcellulose) (HPC) 100 % of control and 101 % of control and 121 % of control | dose: 400.0 mg/kg/injection, schedule: Q01DX005 (ip), vehicle: Klucel (hydroxypropylcellulose) (HPC) 96 % of control

Cc1csc(NC(=S)N(C)C)n1
inactive: [10] 103 % of control | [11] 101 % of control | [12] 101 % of control

CCC(C)C(N)C(=O)NC(C(=O)O)C(C)C (stereo not drawn) (H-Ile-Val-OH; configuration not given here)
inactive: [13] 95 % of control | [14] 103 % of control | [15] 95 % of control

CCOC(=O)C(=Cc1ccccc1Cl)C(=O)OCC
inactive: [16] 100 % of control and 111 % of control | [7] 110 % of control | [8] 102 % of control and 120 % of control | [9] 116 % of control

N=c1c2ncn3c(=O)n(-c4ccccc4)c(nc(=O)n1-c1ccccc1)c23
inactive: [17] 101 % of control | [18] 100 % of control | [19] 98 % of control

S=c1ssc2ccccc12
inactive: dose: 100.0 mg/kg/injection, schedule: Q04DX003 (ip), vehicle: saline with Tween-80 100 % of control | dose: 200.0 mg/kg/injection, schedule: Q04DX003 (ip), vehicle: saline with Tween-80 109 % of control | dose: 400.0 mg/kg/injection, schedule: Q04DX003 (ip), vehicle: saline with Tween-80 109 % of control

C=C(CN1CCOCC1)C(=O)c1ccccc1
inactive: dose: 1.89 mg/kg/injection, schedule: Q01DX005 (ip), vehicle: saline 105 % of control | dose: 3.75 mg/kg/injection, schedule: Q01DX005 (ip), vehicle: saline 112 % of control | dose: 7.5 mg/kg/injection, schedule: Q01DX005 (ip), vehicle: saline 100 % of control and 105 % of control

CC1(C)CC2C3=CCC4C5(C)CCC(O)C(C)(C)C5CCC4(C)C3(C)CC(O)C2(CO)C(O)C1O (stereo unspecified)
inactive: dose: 3.5 mg/kg/injection, schedule: Q01DX005 (ip), vehicle: Klucel (hydroxypropylcellulose) (HPC) 99 % of control | dose: 7.0 mg/kg/injection, schedule: Q01DX005 (ip), vehicle: Klucel (hydroxypropylcellulose) (HPC) 99 % of control | dose: 14.0 mg/kg/injection, schedule: Q01DX005 (ip), vehicle: Klucel (hydroxypropylcellulose) (HPC) 95 % of control | dose: 28.0 mg/kg/injection, schedule: Q01DX005 (ip), vehicle: Klucel (hydroxypropylcellulose) (HPC) 96 % of control

Cc1nc(Sc2nc3ccc([N+](=O)[O-])cc3s2)sc1C
inactive: [4] 87 % of control | [5] 96 % of control | [6] 105 % of control | dose: 400.0 mg/kg/injection, schedule: Q01DX009 (ip), vehicle: saline 96 % of control

CCOC(=O)C(C)(C)Oc1ccc(Cl)cc1
inactive: [7] 100 % of control | [8] 93 % of control | [9] 112 % of control

CC1=CC[C@@H]2C(C#N)C3(CCC12C)OCCO3 (stereo partly specified)
inactive: dose: 50.0 mg/kg/injection, schedule: Q01DX005 (ip), vehicle: saline with Tween-80 92 % of control | dose: 100.0 mg/kg/injection, schedule: Q01DX005 (ip), vehicle: saline with Tween-80 94 % of control | dose: 200.0 mg/kg/injection, schedule: Q01DX005 (ip), vehicle: saline with Tween-80 94 % of control

Clc1ccc(CSCc2c(CSCc3ccc(Cl)cc3)c(CSCc3ccc(Cl)cc3)c(CSCc3ccc(Cl)cc3)c(CSCc3ccc(Cl)cc3)c2CSCc2ccc(Cl)cc2)cc1
inactive: [7] 102 % of control | [8] 102 % of control | [9] 99 % of control

O=C(Nc1ccccc1)Sc1nc2ccccc2s1
inactive: [4] 102 % of control | [5] 104 % of control | [6] 104 % of control

CCOc1cc2c(Cl)ncnc2c(OCC)c1OCC
inactive: [7] 105 % of control | [8] 91 % of control | [9] 106 % of control

CN(C)CCCC1(O)c2ccccc2CCc2ccccc21
inactive: [20] 103 % of control | [21] 108 % of control | [4] 101 % of control and 119 % of control | [5] 94 % of control

O=C(NC(Cc1ccccc1)C(=O)CCC(=O)N1CCCC1C(=O)O)c1ccccc1 (stereo unspecified)
inactive: [3] 103 % of control | [10] 101 % of control | [11] 101 % of control | [12] 101 % of control

Nc1ccn(COC(COCc2ccccc2)COCc2ccccc2)c(=O)n1
inactive: [17] 105 % of control | [18] 96 % of control | [19] 110 % of control

CCN(CC)CCCC(C)Nc1ccnc2cc(N(C)C)ccc12 (stereo unspecified)
inactive: dose: 6.25 mg/kg/injection, schedule: Q01DX009 (ip), vehicle: saline with Tween-80 93 % of control | dose: 12.5 mg/kg/injection, schedule: Q01DX009 (ip), vehicle: saline with Tween-80 109 % of control | [16] 111 % of control

CCCCCC[N+]1(CC)CCCCC1
inactive: dose: 6.25 mg/kg/injection, schedule: Q01DX009 (ip), vehicle: saline 107 % of control | [20] 105 % of control | [21] 107 % of control

CCN(CC)c1nc(NNC(=S)NC)nc(N(CC)CC)n1
inactive: [10] 100 % of control | [11] 98 % of control | [12] 100 % of control

CC1(C)NC(=O)N(CN2CCOCC2)C1=O
inactive: dose: 30.0 mg/kg/injection, schedule: Q01DX005 (ip), vehicle: saline 104 % of control | [13] 109 % of control and 111 % of control and 93 % of control | [14] 106 % of control and 119 % of control and 123 % of control | [15] 106 % of control and 116 % of control and 120 % of control

From PubChem BioAssay AID330 (DTP/NCI, 2004)
